Measurements published in patent US12528837B2, “Aryl substituted polymyxin derivatives” (priority 2018, dated 2026).
In brackets after ≈: the same amount, converted by molar mass. Like-named read-outs stand apart in the source and are kept apart here. *1 amine or outer side, *2 acyl side, *3 side chain or, on linkers, in order; H or OH if unused. Where a SMILES comes first, the peptide text is derived from it. Bridges are numbered along the chain shown (N, C = ends). [ ]: non-standard residue; d: D form. The star is where a group is joined. GABA(3S-Bn) = O=C(C[C@@H](CN[*:1])Cc1ccccc1)[*:2]; GABA(3R-Bn) = O=C(C[C@H](CN[*:1])Cc1ccccc1)[*:2]; X14 = NC[C@@H](CC(=O)*)c1cccc(-c2ccsc2)c1; X23 = NC[C@H](CC(=O)*)c1cccc(-c2ccsc2)c1; X18 = NC[C@@H](CC(=O)*)c1cc(Cl)cc(Cl)c1; X21 = NC[C@H](CC(=O)*)c1cc(Cl)cc(Cl)c1; X24 = NCC[C@@H](C(=O)*)c1ccc(Cl)cc1; X25 = NCC[C@@H](C(=O)*)c1cccc(Cl)c1; X1 = NC[C@@H](CC(=O)*)c1cccc(Cl)c1; X10 = Cc1cccc([C@@H](CN)CC(=O)*)c1; dNle = CCCC[C@@H](N)C(=O)O; Dab = NCC[C@H](N)C(=O)O; Abu = CC[C@H](N)C(=O)O; Dap = NC[C@H](N)C(=O)O

Tests used:
P. aeruginosa CCUG 59347 = format: cell-based
Experimental: (§1) The inoculum was prepared by making a direct suspension of isolated colonies (selected from an 18-24 hour Mueller-Hinton agar plate) adjusted to the 0.5 McFarland standard. […] The assays were performed in duplicate. […] Several of the compounds were subjected to multiple tests, and where this is the case, the MIC presented is the median value obtained. The MIC values are quoted in μg/mL.

K. pneumoniae CA64 = format: cell-based
Experimental: as §1

E. coli CA58 = format: cell-based
Experimental: as §1

K. pneumoniae ATCC 13822 = format: cell-based
Experimental: (§2) The inoculum was prepared by making a direct suspension of isolated colonies (selected from an 18-24 hour Mueller-Hinton agar plate) adjusted to the 0.5 McFarland standard. […] The assays were performed in duplicate. […] The MIC values are quoted in μg/mL.

P. aeruginosa ATCC 27853 = format: cell-based
Experimental: as §2

E. coli ATCC 25922 = format: cell-based; conditions: cation-adjusted Mueller-Hinton Broth, 18-20 h, 35° C.
Experimental: as §2

A. baumannii NCTC 13424 = format: cell-based
Experimental: as §2

[1] = Kidney drug level after subcutaneous dose in mouse; format: in vivo; conditions: mouse, in vivo
Experimental: Four hours after dosing the animals were euthanised and kidneys removed, trimmed of fat and connective tissue, weighed and immediately snap-frozen. After thawing at room temperature, pairs of kidneys from each animal were placed in 2 mL conical tubes containing pre-weighed ceria-stabilised zirconium oxide beads. […] After 10 min. centrifugation at 13,000 rpm and 6° C., 200 μl of the supernatants were transferred into glass inserts and analysed by LC-MS-MS.

HK-2 cells = experiment: In vitro renal cell toxicity assay (HK-2); format: cell-based
Experimental: The in vitro renal cell toxicity assay was performed according to the following protocol. […] Cells were seeded at 7,500 cells per well in 96-well plates and allowed to adhere overnight. […] Water and DMSO levels were kept constant at 5% and 0.5% respectively. The test compounds were incubated with cells for 24 h at 37° C. 5% CO2 in a humidified atmosphere. […] Media only background values were subtracted before the data was analysed using GraphPad Prism. Individual values were normalised to the vehicle control wells for each compound. Compound concentration values were plotted as log values to enable a dose-response curve to be fitted. The bottom of the curve was constrained to zero and IC50 values were determined. IC50 values are expressed relative to that for PMB in the same experiment. Where multiple determinations have been made, median values are presented.

[2] = cation-adjusted Mueller-Hinton Broth, 18-20 h, 35° C.

Row | Compound | MIC P. aeruginosa CCUG 59347 (P. aeruginosa CCUG 59347; CCUG 59347) | MIC K. pneumoniae CA64 (K. pneumoniae CA64; CA64) | MIC E. coli CA58 (E. coli CA58; CA58) | MIC P. aeruginosa ATCC 27853 (P. aeruginosa ATCC 27853; ATCC 27853) | MIC P. aeruginosa CCUG 59347 (P. aeruginosa CCUG 59347; [2]) | MIC K. pneumoniae CA64 (K. pneumoniae CA64; [2]) | MIC E. coli CA58 (E. coli CA58; [2]) | MIC P. aeruginosa ATCC 27853 (P. aeruginosa ATCC 27853; [2]) | tissue level at time at 4 h ([1]; sc, 17.2 mg/kg) | HK-2 rel to PMB (HK-2 cells) | other results
1 | CC[C@@H]1NC(=O)[C@@H](CC(C)C)NC(=O)[C@H](CCN)NC(=O)[C@@H](NC(=O)[C@H](CN)NC(=O)[C@@H](NC(=O)C[C@@H](CN)c2cccc(-c3ccsc3)c2)[C@@H](C)O)CCNC(=O)[C@H]([C@@H](C)O)NC(=O)[C@H](CCN)NC(=O)[C@H](CCN)NC1=O [Example 31, (R)-4-amino-3-(3- (thiophen-3-yl)phenyl)butanoyl- Thr-Dap-Cyclo[Dab- Dab-DLeu-Abu-Dab- Dab-Thr]] (X23-T[Dap][Dab][Dab][dL][Abu][Dab][Dab]T; lactam 3-C) | 0.25 µg/mL (≈ 0.221 µM) | 4 µg/mL (≈ 3.54 µM) | 16 µg/mL (≈ 14.2 µM) | 0.25 µg/mL (≈ 0.221 µM) |  |  |  |  |  |  | MIC K. pneumoniae ATCC 13822 (K. pneumoniae ATCC 13822; ATCC 13822): 0.25 µg/mL (≈ 0.221 µM)
2 | CCCC[C@H]1NC(=O)[C@H](CCN)NC(=O)[C@@H](NC(=O)[C@H](CN)NC(=O)[C@@H](NC(=O)C[C@@H](CN)c2cc(Cl)cc(Cl)c2)[C@@H](C)O)CCNC(=O)[C@H]([C@@H](C)O)NC(=O)[C@H](CCN)NC(=O)[C@H](CCN)NC(=O)[C@H](CC)NC1=O [Example 29, (R)-4-amino-3-(3,5- dichlorophenyl)butanoyl- Thr-Dap- Cyclo[Dab-Dab- DnorLeu-Abu-Dab- Dab-Thr]] (X21-T[Dap][Dab][Dab][dNle][Abu][Dab][Dab]T; lactam 3-C) |  |  |  |  | 0.5 µg/mL (≈ 0.448 µM) | 8 µg/mL (≈ 7.16 µM) | 16 µg/mL (≈ 14.3 µM) | 0.25 µg/mL (≈ 0.224 µM) |  |  | MIC K. pneumoniae ATCC 13822 (K. pneumoniae ATCC 13822; [2]): 0.25 µg/mL (≈ 0.224 µM); MIC E. coli ATCC 25922 (E. coli ATCC 25922): 0.25 µg/mL (≈ 0.224 µM)
3 | CC(C)C[C@@H]1NC(=O)[C@@H](CC(C)C)NC(=O)[C@H](CCN)NC(=O)[C@@H](NC(=O)[C@H](CN)NC(=O)[C@@H](NC(=O)C[C@@H](CN)Cc2ccccc2)[C@@H](C)O)CCNC(=O)[C@H]([C@@H](C)O)NC(=O)[C@H](CCN)NC(=O)[C@H](CCN)NC1=O [Example 8, (S)-4-amino-3- benzylbutanoyl-Thr- Dap-Cyclo[Dab-Dab- DLeu-Leu-Dab-Dab- Thr], Isomer 2] ({GABA(3S-Bn)}-T[Dap][Dab][Dab][dL]L[Dab][Dab]T; lactam 3-C) |  |  |  |  | 0.5 µg/mL (≈ 0.459 µM) | 32 µg/mL (≈ 29.3 µM) | 16 µg/mL (≈ 14.7 µM) | 0.06 µg/mL (≈ 0.055 µM) |  |  | MIC A. baumannii NCTC 13424 (A. baumannii NCTC 13424; [2]): 0.25 µg/mL (≈ 0.229 µM)
4 | CCCC[C@H]1NC(=O)[C@H](CCN)NC(=O)[C@@H](NC(=O)[C@H](CN)NC(=O)[C@@H](NC(=O)C[C@H](CN)c2cc(Cl)cc(Cl)c2)[C@@H](C)O)CCNC(=O)[C@H]([C@@H](C)O)NC(=O)[C@H](CCN)NC(=O)[C@H](CCN)NC(=O)[C@H](CC)NC1=O [Example 28, (S)-4-amino-3-(3,5- dichlorophenyl)butanoyl- Thr-Dap- Cyclo[Dab-Dab- DnorLeu-Abu-Dab- Dab-Thr]] (X18-T[Dap][Dab][Dab][dNle][Abu][Dab][Dab]T; lactam 3-C) | 0.25 µg/mL (≈ 0.224 µM) | 8 µg/mL (≈ 7.16 µM) | 16 µg/mL (≈ 14.3 µM) | 0.25 µg/mL (≈ 0.224 µM) |  |  |  |  | 408000 ng/g | 68.5 | MIC A. baumannii NCTC 13424 (A. baumannii NCTC 13424; NCTC 13424): 0.06 µg/mL (≈ 0.0537 µM)
5 | CC(C)C[C@@H]1NC(=O)[C@@H](CC(C)C)NC(=O)[C@H](CCN)NC(=O)[C@@H](NC(=O)[C@H](CN)NC(=O)[C@@H](NC(=O)C[C@H](CN)Cc2ccccc2)[C@@H](C)O)CCNC(=O)[C@H]([C@@H](C)O)NC(=O)[C@H](CCN)NC(=O)[C@H](CCN)NC1=O [Example 7, (R)-4-amino-3- benzylbutanoyl -Thr- Dap-Cyclo[Dab-Dab- DLeu-Leu-Dab-Dab- Thr]. Isomer 1] ({GABA(3R-Bn)}-T[Dap][Dab][Dab][dL]L[Dab][Dab]T; lactam 3-C) |  |  |  |  | 0.25 µg/mL (≈ 0.229 µM) | 32 µg/mL (≈ 29.3 µM) | 16 µg/mL (≈ 14.7 µM) |  |  |  | MIC E. coli ATCC 25922 (E. coli ATCC 25922): 0.25 µg/mL (≈ 0.229 µM)
6 | CC[C@@H]1NC(=O)[C@@H](CC(C)C)NC(=O)[C@H](CCN)NC(=O)[C@@H](NC(=O)[C@H](CN)NC(=O)[C@@H](NC(=O)C[C@H](CN)c2cccc(Cl)c2)[C@@H](C)O)CCNC(=O)[C@H]([C@@H](C)O)NC(=O)[C@H](CCN)NC(=O)[C@H](CCN)NC1=O [Example 23] (X1-T[Dap][Dab][Dab][dL][Abu][Dab][Dab]T; lactam 3-C) |  |  |  |  | 0.5 µg/mL (≈ 0.462 µM) | 64 µg/mL (≈ 59.1 µM) | 32 µg/mL (≈ 29.6 µM) | 0.25 µg/mL (≈ 0.231 µM) |  |  | tissue level at time at 4 h ([1]; mice, 17.2 mg/kg free base sc, 4 h, read-out: 4 hr kidney level): 263000 ng/g; HK-2 rel to PMB (HK-2 cells; IC50 relative to PMB in the same experiment, 24 h): >41
7 | CC[C@@H]1NC(=O)[C@@H](CC(C)C)NC(=O)[C@H](CCN)NC(=O)[C@@H](NC(=O)[C@H](CN)NC(=O)[C@@H](NC(=O)C[C@H](CN)c2cccc(-c3ccsc3)c2)[C@@H](C)O)CCNC(=O)[C@H]([C@@H](C)O)NC(=O)[C@H](CCN)NC(=O)[C@H](CCN)NC1=O [Example 30, (S)-4-amino-3-(3- (thiophen-3-yl)phenyl)butanoyl- Thr-Dap-Cyclo[Dab- Dab-DLeu-Abu-Dab- Dab-Thr]] (X14-T[Dap][Dab][Dab][dL][Abu][Dab][Dab]T; lactam 3-C) | 0.5 µg/mL (≈ 0.442 µM) | 16 µg/mL (≈ 14.2 µM) | 8 µg/mL (≈ 7.08 µM) | 0.25 µg/mL (≈ 0.221 µM) |  |  |  |  | 252000 ng/g | 37.5 | MIC A. baumannii NCTC 13424 (A. baumannii NCTC 13424; NCTC 13424): 0.06 µg/mL (≈ 0.0531 µM)
8 | Cc1cccc([C@@H](CN)CC(=O)N[C@H](C(=O)N[C@@H](CN)C(=O)N[C@H]2CCNC(=O)[C@H]([C@@H](C)O)NC(=O)[C@H](CCN)NC(=O)[C@H](CCN)NC(=O)[C@H](CC(C)C)NC(=O)[C@@H](Cc3ccccc3)NC(=O)[C@H](CCN)NC2=O)[C@@H](C)O)c1 [Example 21, (S)-4-amino-3-(m- tolyl)butanoyl-Thr- Dap-Cyclo[Dab-Dab- DPhe-Leu-Dab-Dab- Thr]] (X10-T[Dap][Dab][Dab][dF]L[Dab][Dab]T; lactam 3-C) | 0.5 µg/mL (≈ 0.445 µM) | 32 µg/mL (≈ 28.5 µM) | 16 µg/mL (≈ 14.2 µM) | 0.25 µg/mL (≈ 0.222 µM) |  |  |  |  | 209000 ng/g | 26.7 | MIC K. pneumoniae ATCC 13822 (K. pneumoniae ATCC 13822; ATCC 13822): 0.25 µg/mL (≈ 0.222 µM)
9 | CC(C)C[C@@H]1NC(=O)[C@@H](Cc2ccccc2)NC(=O)[C@H](CCN)NC(=O)[C@@H](NC(=O)[C@H](CN)NC(=O)[C@@H](NC(=O)[C@H](CCN)c2cccc(Cl)c2)[C@@H](C)O)CCNC(=O)[C@H]([C@@H](C)O)NC(=O)[C@H](CCN)NC(=O)[C@H](CCN)NC1=O [reference compound] (X25-T[Dap][Dab][Dab][dF]L[Dab][Dab]T; lactam 3-C) |  |  |  |  |  |  |  |  |  |  | 4 hr kidney level/rel. cytotoxicity [1]: 115; Drug Level in Kidney (μg/g kidney, 4 h) ([1]; sc, 17.2 mg/kg): 589 μg/g kidney; Cytotoxicity (measured IC50 relative to that recorded for Polymyxin B) (HK-2 cells): 5.1
10 | CC(C)C[C@@H]1NC(=O)[C@@H](Cc2ccccc2)NC(=O)[C@H](CCN)NC(=O)[C@@H](NC(=O)[C@H](CN)NC(=O)[C@@H](NC(=O)[C@H](CCN)c2ccc(Cl)cc2)[C@@H](C)O)CCNC(=O)[C@H]([C@@H](C)O)NC(=O)[C@H](CCN)NC(=O)[C@H](CCN)NC1=O [reference compound] (X24-T[Dap][Dab][Dab][dF]L[Dab][Dab]T; lactam 3-C) |  |  |  |  |  |  |  |  |  |  | 4 hr kidney level/rel. cytotoxicity [1]: 111; Drug Level in Kidney (μg/g kidney, 4 h) ([1]; sc, 17.2 mg/kg): 533 μg/g kidney; Cytotoxicity (measured IC50 relative to that recorded for Polymyxin B) (HK-2 cells): 4.8
